From the kinase profiling compilation of Christmann-Franck et al. (2016)
Several values for one entry are separate records, joined by “and”; a condition that tells them apart may be missing. Equal values may be shown once.

What was measured:
Assay in all cases: KINOMEscan competition binding
Details in all cases: compound 10.0 µM
ROCK2 (human) = ROCK2 (human) (UniProt O75116)
FYN (human) = FYN (human) (UniProt P06241)
STK24 (human) = STK24 (human) (UniProt Q9Y6E0)
RIPK2 (human) = RIPK2 (human) (UniProt O43353)
MAP3K15 (human) = MAP3K15 (human) (UniProt Q6ZN16)
RPS6KA5 KD2 (human) = RPS6KA5 KD2 (human) (UniProt O75582)
[1] = tested on: RET (human), P07949 [V804L]
PIM1 (human) = PIM1 (human) (UniProt P11309)
MARK4 (human) = MARK4 (human) (UniProt Q96L34)
STK4 (human) = STK4 (human) (UniProt Q13043)
EPHA7 (human) = EPHA7 (human) (UniProt Q15375)
EPHA8 (human) = EPHA8 (human) (UniProt P29322)
HIPK4 (human) = HIPK4 (human) (UniProt Q8NE63)
CSF1R (human) = CSF1R (human) (UniProt P07333)
SRPK1 (human) = SRPK1 (human) (UniProt Q96SB4)
SIK1 (human) = SIK1 (human) (UniProt P57059)
ANKK1 (human) = ANKK1 (human) (UniProt Q8NFD2)
RPS6KA1 KD1 (human) = RPS6KA1 KD1 (human) (UniProt Q15418)
MKNK1 (human) = MKNK1 (human) (UniProt Q9BUB5)
AKT1 (human) = AKT1 (human) (UniProt P31749)
RPS6KA5 KD1 (human) = RPS6KA5 KD1 (human) (UniProt O75582)
PKMYT1 (human) = PKMYT1 (human) (UniProt Q99640)
FLT1 (human) = FLT1 (human) (UniProt P17948)
NEK5 (human) = NEK5 (human) (UniProt Q6P3R8)
STK36 (human) = STK36 (human) (UniProt Q9NRP7)
WEE1 (human) = WEE1 (human) (UniProt P30291)
PTK2B (human) = PTK2B (human) (UniProt Q14289)
NTRK3 (human) = NTRK3 (human) (UniProt Q16288)
MATK (human) = MATK (human) (UniProt P42679)
RPS6KA3 KD1 (human) = RPS6KA3 KD1 (human) (UniProt P51812)
MAPK15 (human) = MAPK15 (human) (UniProt Q8TD08)
TAOK3 (human) = TAOK3 (human) (UniProt Q9H2K8)
CHEK1 (human) = CHEK1 (human) (UniProt O14757)
HUNK (human) = HUNK (human) (UniProt P57058)
NEK1 (human) = NEK1 (human) (UniProt Q96PY6)
AAK1 (human) = AAK1 (human) (UniProt Q2M2I8)
PLK3 (human) = PLK3 (human) (UniProt Q9H4B4)
EIF2AK2 (human) = EIF2AK2 (human) (UniProt P19525)
PTK2 (human) = PTK2 (human) (UniProt Q05397)
MINK1 (human) = MINK1 (human) (UniProt Q8N4C8)

EPHA7 (human), sequence (Q15375 whole entry, looked up): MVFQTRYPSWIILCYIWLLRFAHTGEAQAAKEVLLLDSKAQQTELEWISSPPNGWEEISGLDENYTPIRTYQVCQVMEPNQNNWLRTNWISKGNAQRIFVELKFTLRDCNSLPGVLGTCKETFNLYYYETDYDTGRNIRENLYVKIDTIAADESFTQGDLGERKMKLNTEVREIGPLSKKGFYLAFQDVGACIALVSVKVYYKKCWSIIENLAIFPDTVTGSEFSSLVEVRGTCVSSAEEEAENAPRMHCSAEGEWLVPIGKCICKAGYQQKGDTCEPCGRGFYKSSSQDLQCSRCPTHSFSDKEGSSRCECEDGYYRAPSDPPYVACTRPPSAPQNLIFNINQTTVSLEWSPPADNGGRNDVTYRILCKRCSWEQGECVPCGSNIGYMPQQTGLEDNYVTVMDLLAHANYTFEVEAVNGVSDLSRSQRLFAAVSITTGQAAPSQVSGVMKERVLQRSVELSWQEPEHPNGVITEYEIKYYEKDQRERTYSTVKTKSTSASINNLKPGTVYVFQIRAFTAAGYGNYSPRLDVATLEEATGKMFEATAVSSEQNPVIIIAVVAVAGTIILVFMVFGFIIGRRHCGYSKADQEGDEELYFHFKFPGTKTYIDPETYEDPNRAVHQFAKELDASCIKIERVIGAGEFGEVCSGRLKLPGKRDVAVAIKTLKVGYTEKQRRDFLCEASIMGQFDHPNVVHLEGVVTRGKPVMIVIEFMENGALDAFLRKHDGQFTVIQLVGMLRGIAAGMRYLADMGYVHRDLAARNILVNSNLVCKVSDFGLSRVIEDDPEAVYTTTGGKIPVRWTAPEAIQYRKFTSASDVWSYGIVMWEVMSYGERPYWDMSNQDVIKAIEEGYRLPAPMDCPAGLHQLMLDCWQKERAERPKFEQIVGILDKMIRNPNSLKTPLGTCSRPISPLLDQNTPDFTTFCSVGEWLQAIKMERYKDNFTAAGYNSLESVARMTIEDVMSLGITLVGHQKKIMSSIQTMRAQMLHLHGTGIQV
SRPK1 (human), sequence (Q96SB4 whole entry, looked up): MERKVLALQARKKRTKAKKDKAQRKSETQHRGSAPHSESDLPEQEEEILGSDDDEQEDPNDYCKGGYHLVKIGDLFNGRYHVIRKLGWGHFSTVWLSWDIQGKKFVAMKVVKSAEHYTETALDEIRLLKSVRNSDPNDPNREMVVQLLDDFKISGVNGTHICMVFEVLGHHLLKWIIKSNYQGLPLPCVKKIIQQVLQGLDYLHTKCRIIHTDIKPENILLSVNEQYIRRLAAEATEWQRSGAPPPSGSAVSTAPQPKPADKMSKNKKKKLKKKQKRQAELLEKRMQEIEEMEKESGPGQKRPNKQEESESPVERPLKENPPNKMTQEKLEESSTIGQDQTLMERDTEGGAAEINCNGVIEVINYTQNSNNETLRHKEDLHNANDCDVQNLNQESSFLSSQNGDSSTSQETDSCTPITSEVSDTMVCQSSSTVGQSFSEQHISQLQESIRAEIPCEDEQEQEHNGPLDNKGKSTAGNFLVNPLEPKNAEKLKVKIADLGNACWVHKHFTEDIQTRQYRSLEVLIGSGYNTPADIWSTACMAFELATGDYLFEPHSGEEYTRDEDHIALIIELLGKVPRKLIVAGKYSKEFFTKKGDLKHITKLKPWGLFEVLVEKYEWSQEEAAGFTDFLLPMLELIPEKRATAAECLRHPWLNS
PTK2 (human), sequence (Q05397 whole entry, looked up): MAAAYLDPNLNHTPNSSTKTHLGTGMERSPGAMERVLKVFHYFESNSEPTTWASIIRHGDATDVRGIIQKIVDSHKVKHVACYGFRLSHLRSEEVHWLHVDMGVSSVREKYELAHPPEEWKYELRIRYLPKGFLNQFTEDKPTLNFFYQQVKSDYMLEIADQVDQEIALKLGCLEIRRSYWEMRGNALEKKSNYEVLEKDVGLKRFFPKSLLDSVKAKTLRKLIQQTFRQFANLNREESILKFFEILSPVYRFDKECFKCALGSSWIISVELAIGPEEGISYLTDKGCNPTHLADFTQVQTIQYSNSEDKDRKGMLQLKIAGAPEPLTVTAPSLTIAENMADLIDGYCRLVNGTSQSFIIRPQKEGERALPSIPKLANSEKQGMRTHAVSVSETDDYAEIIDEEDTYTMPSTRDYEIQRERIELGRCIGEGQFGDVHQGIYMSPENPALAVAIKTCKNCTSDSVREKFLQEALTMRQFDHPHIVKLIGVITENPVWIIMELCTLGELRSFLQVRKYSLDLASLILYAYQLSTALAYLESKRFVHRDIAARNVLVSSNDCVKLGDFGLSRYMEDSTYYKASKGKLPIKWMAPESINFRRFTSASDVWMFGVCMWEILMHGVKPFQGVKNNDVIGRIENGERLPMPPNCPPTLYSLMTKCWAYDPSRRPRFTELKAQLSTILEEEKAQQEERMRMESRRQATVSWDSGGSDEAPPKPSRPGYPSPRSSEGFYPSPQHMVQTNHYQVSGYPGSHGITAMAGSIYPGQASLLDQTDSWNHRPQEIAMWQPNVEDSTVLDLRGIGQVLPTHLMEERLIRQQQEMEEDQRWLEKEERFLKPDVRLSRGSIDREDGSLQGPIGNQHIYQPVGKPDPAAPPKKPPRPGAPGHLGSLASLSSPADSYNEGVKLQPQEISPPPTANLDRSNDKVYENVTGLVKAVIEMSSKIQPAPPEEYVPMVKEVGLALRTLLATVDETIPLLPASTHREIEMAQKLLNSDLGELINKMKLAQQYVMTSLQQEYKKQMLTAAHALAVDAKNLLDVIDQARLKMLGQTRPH
WEE1 (human), sequence (P30291 whole entry, looked up): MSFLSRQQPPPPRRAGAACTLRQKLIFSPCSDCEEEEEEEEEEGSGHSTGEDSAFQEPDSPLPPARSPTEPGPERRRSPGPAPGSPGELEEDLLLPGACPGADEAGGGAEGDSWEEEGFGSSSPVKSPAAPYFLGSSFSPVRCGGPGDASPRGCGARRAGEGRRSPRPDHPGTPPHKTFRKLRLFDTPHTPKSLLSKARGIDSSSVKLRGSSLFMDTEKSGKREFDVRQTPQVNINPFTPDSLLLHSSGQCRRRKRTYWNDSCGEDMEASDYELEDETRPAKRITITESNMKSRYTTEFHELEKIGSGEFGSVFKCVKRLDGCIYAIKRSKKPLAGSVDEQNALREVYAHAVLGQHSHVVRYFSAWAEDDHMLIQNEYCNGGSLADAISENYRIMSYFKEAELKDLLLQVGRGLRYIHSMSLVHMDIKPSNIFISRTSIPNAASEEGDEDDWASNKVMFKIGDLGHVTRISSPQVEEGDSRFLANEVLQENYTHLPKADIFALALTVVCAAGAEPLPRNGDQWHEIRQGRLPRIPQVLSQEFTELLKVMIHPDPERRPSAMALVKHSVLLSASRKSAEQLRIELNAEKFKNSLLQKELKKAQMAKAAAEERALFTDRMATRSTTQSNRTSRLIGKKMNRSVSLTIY
HIPK4 (human), sequence (Q8NE63 whole entry, looked up): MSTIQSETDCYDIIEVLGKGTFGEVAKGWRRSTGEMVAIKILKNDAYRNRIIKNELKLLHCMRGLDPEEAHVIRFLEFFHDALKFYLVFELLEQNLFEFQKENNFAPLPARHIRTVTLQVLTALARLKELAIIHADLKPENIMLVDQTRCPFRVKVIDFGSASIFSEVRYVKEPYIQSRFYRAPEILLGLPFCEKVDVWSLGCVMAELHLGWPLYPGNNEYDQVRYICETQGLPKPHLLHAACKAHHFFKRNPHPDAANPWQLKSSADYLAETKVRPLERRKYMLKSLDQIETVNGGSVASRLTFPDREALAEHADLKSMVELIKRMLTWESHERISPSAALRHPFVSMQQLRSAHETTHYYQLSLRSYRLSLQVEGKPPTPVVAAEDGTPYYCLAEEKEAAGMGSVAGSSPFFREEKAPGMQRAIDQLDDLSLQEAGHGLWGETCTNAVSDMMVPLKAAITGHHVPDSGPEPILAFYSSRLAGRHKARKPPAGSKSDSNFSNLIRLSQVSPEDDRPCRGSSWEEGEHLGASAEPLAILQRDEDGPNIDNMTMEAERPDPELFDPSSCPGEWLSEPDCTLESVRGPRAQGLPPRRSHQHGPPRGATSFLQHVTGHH
AAK1 (human), sequence (Q2M2I8 whole entry, looked up): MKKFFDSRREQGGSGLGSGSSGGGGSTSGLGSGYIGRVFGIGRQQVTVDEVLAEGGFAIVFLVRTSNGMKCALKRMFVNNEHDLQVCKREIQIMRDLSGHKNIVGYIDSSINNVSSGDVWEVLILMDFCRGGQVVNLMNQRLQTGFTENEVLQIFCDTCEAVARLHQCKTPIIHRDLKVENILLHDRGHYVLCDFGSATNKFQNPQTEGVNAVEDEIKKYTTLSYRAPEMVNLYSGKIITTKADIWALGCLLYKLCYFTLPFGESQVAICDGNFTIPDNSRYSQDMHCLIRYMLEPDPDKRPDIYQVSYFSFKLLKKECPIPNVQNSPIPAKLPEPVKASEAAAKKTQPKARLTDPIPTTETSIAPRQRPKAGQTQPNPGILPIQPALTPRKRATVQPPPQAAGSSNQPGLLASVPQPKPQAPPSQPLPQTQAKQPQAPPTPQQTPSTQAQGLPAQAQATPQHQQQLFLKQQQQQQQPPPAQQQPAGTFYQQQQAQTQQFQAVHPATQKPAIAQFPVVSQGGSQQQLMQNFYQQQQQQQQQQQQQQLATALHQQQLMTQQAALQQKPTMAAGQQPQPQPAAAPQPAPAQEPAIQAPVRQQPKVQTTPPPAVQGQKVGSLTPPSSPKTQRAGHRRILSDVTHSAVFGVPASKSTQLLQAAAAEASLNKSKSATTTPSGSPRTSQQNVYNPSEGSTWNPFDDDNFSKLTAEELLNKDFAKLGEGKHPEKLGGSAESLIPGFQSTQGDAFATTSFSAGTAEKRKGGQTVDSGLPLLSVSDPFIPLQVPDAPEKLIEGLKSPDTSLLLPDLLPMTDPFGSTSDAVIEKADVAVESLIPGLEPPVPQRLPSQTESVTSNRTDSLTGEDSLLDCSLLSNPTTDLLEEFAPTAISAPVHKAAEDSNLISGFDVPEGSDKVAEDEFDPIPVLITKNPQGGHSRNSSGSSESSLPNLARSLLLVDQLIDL

Compound	kinase still bound, per cent of control (ROCK2 (human)) [%]	kinase still bound, per cent of control (FYN (human)) [%]	kinase still bound, per cent of control (STK24 (human)) [%]	kinase still bound, per cent of control (RIPK2 (human)) [%]	kinase still bound, per cent of control (MAP3K15 (human)) [%]	kinase still bound, per cent of control (RPS6KA5 KD2 (human)) [%]	kinase still bound, per cent of control [1] [%]	kinase still bound, per cent of control (PIM1 (human)) [%]	kinase still bound, per cent of control (MARK4 (human)) [%]	kinase still bound, per cent of control (STK4 (human)) [%]	kinase still bound, per cent of control (EPHA7 (human)) [%]	kinase still bound, per cent of control (EPHA8 (human)) [%]	kinase still bound, per cent of control (HIPK4 (human)) [%]	kinase still bound, per cent of control (CSF1R (human))	kinase still bound, per cent of control (SRPK1 (human)) [%]	kinase still bound, per cent of control (SIK1 (human)) [%]	kinase still bound, per cent of control (ANKK1 (human)) [%]	kinase still bound, per cent of control (RPS6KA1 KD1 (human)) [%]	kinase still bound, per cent of control (MKNK1 (human)) [%]	kinase still bound, per cent of control (AKT1 (human)) [%]	other results
O=c1[nH]c2ccccc2n1C1CCN(Cc2ccc(-c3nc4cc5[nH]cnc5cc4nc3-c3ccccc3)cc2)CC1	73	100	100	64	100	99	85	93	99	77	100	95	72	99% and 76%	99	100	73	91	77	77	kinase still bound, per cent of control (RPS6KA5 KD1 (human)): 100%; kinase still bound, per cent of control (PKMYT1 (human)): 94%; kinase still bound, per cent of control (FLT1 (human)): 89%; kinase still bound, per cent of control (NEK5 (human)): 97%; kinase still bound, per cent of control (STK36 (human)): 74%; kinase still bound, per cent of control (WEE1 (human)): 99%; kinase still bound, per cent of control (PTK2B (human)): 91%; kinase still bound, per cent of control (NTRK3 (human)): 98%; kinase still bound, per cent of control (MATK (human)): 70%; kinase still bound, per cent of control (RPS6KA3 KD1 (human)): 67%; kinase still bound, per cent of control (MAPK15 (human)): 100%; kinase still bound, per cent of control (TAOK3 (human)): 84%; kinase still bound, per cent of control (CHEK1 (human)): 100%; kinase still bound, per cent of control (HUNK (human)): 72%; kinase still bound, per cent of control (NEK1 (human)): 100%; kinase still bound, per cent of control (AAK1 (human)): 100%; kinase still bound, per cent of control (PLK3 (human)): 94%; kinase still bound, per cent of control (EIF2AK2 (human)): 100%; kinase still bound, per cent of control (PTK2 (human)): 95%; kinase still bound, per cent of control (MINK1 (human)): 88%
C=CC(=O)Nc1ccc(C(=O)c2sc(Nc3ccc(N4CCN(C)CC4)cc3OC)nc2N)cc1	24	83	71	100	9.2	7	100	90	85	100	95	88	4.6	58%	71	83	100	24	34	100	kinase still bound, per cent of control (RPS6KA5 KD1 (human)): 100%; kinase still bound, per cent of control (PKMYT1 (human)): 96%; kinase still bound, per cent of control (FLT1 (human)): 97%; kinase still bound, per cent of control (NEK5 (human)): 100%; kinase still bound, per cent of control (STK36 (human)): 90%; kinase still bound, per cent of control (WEE1 (human)): 100%; kinase still bound, per cent of control (PTK2B (human)): 42%; kinase still bound, per cent of control (NTRK3 (human)): 93%; kinase still bound, per cent of control (MATK (human)): 25%; kinase still bound, per cent of control (RPS6KA3 KD1 (human)): 9.6%; kinase still bound, per cent of control (MAPK15 (human)): 75%; kinase still bound, per cent of control (TAOK3 (human)): 23%; kinase still bound, per cent of control (CHEK1 (human)): 73%; kinase still bound, per cent of control (HUNK (human)): 33%; kinase still bound, per cent of control (NEK1 (human)): 64%; kinase still bound, per cent of control (AAK1 (human)): 11%; kinase still bound, per cent of control (PLK3 (human)): 7.8%; kinase still bound, per cent of control (EIF2AK2 (human)): 100%; kinase still bound, per cent of control (PTK2 (human)): 51%; kinase still bound, per cent of control (MINK1 (human)): 3.5%
CC1=C(C(=O)Nc2cc3cn[nH]c3cc2F)C(c2ccc(C(F)(F)F)cc2)CC(=O)N1 (stereo not given)	0.1	82	52	77	77	87	39	88	100	100	80	71	86	68%	100	77	97	72	100	76	kinase still bound, per cent of control (RPS6KA5 KD1 (human)): 88%; kinase still bound, per cent of control (PKMYT1 (human)): 100%; kinase still bound, per cent of control (FLT1 (human)): 77%; kinase still bound, per cent of control (NEK5 (human)): 90%; kinase still bound, per cent of control (STK36 (human)): 96%; kinase still bound, per cent of control (WEE1 (human)): 94%; kinase still bound, per cent of control (PTK2B (human)): 100%; kinase still bound, per cent of control (NTRK3 (human)): 100%; kinase still bound, per cent of control (MATK (human)): 68%; kinase still bound, per cent of control (RPS6KA3 KD1 (human)): 53%; kinase still bound, per cent of control (MAPK15 (human)): 80%; kinase still bound, per cent of control (TAOK3 (human)): 96%; kinase still bound, per cent of control (CHEK1 (human)): 100%; kinase still bound, per cent of control (HUNK (human)): 100%; kinase still bound, per cent of control (NEK1 (human)): 91%; kinase still bound, per cent of control (AAK1 (human)): 70%; kinase still bound, per cent of control (PLK3 (human)): 84%; kinase still bound, per cent of control (EIF2AK2 (human)): 76%; kinase still bound, per cent of control (PTK2 (human)): 79%; kinase still bound, per cent of control (MINK1 (human)): 71%
